# Assay results published in patent publication US20250340574A1, “MODULATORS OF CYSTIC FIBROSIS TRANSMEMBRANE CONDUCTANCE REGULATOR” (Vertex Pharmaceuticals Incorporated, priority 2022, published 2025).
# Values joined by “and” are separate entries in the source; they are usually repeats but may differ in a detail not shown here. Equal entries are not always repeated. Where two headings read alike, the source gives them in different places.
# Columns and labels:
# [1] = amide bond, 13-membered ring, CDMT/NMM, DMF
# [2] = molecular target: T1, CFTR (F508del/MF-HBE cells) (Homo sapiens, UniProt P13569, DEL508-508); test: Ussing chamber assay of CFTR-mediated short-circuit currents, Assay D (single concentration of 1 μM); assay type: cell-based; details: with 44 nM potentiator and 18 μM Tezacaftor, 18-24 hours, 20% human serum
# T1 construct: human bronchial epithelial (HBE) cells derived from CF subjects heterozygous for F508del and a minimal function CFTR mutation (F508del/MF-HBE); endogenous in cells; host or cells: Primary human bronchial epithelial cells from CF subjects (F508del/MF genotype), differentiated at an air-liquid interface
# T1 sequence (P13569 with tags, fused parts or gaps DEL508-508): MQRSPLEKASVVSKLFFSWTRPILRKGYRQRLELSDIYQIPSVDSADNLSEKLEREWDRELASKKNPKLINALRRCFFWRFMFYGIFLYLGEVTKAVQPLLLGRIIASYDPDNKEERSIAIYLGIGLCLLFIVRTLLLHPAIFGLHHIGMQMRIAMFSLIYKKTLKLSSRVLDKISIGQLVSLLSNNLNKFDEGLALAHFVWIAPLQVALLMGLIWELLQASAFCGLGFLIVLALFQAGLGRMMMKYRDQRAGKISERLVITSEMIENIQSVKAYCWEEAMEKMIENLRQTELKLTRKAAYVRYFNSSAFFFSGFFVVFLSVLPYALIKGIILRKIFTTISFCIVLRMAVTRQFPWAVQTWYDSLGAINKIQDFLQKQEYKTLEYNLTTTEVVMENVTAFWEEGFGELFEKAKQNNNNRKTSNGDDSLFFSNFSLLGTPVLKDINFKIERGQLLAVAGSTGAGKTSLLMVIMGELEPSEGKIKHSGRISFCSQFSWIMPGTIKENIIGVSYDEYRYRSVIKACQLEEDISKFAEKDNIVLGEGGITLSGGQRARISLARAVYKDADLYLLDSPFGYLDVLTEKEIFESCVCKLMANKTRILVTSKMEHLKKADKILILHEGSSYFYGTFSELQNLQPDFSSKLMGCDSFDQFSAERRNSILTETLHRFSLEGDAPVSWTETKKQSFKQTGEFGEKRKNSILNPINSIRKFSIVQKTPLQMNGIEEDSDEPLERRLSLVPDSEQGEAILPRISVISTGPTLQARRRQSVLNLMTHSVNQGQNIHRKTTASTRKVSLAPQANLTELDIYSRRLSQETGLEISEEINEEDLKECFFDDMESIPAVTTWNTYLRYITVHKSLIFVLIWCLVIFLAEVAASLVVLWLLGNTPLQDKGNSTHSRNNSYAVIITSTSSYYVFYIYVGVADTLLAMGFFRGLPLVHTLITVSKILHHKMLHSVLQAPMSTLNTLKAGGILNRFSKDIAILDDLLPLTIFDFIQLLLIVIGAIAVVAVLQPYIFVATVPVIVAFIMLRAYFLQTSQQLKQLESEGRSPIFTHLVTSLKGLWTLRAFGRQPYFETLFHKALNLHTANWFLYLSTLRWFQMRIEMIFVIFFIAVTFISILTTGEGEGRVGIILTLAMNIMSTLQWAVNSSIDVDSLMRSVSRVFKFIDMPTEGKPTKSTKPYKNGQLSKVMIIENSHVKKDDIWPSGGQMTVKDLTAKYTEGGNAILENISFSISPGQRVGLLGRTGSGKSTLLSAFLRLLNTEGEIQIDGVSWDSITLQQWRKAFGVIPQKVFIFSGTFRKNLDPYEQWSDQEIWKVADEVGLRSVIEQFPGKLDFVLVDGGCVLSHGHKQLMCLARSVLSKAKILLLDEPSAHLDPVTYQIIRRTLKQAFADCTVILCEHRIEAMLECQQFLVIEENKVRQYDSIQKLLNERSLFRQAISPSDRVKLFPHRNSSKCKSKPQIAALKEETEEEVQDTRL
# Method in brief: (§1)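 Short-circuit current was recorded at 37 °C under voltage clamp (0 mV) with amiloride 30 μM apically, forskolin 20 μM activation, then BPO/GlyH-101/inh-172 (20 μM each) to isolate CFTR current. Before recording, corrector exposure lasted 18–24 h with 18 μM tezacaftor, 20% human serum, and 33 nM (dose–response) or 44 nM (1 μM fixed) potentiator, maintained throughout.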
# [3] = molecular target: T1, CFTR (F508del/MF-HBE cells); test: Ussing chamber assay of CFTR-mediated short-circuit currents, Assay C (0.026 μM to 25 μM, 6 concentrations); assay type: cell-based; details: with 33 nM potentiator and 18 μM Tezacaftor, 20% human serum; for Emax: read-out: C Max activity (%)
# Method in brief: as §1
Compound,D activity at 1 μM (%) [2],EC50 [3] [nM],Emax [3] [%],further results
"Cc1cccc(C)c1-c1cc2nc(n1)NS(=O)(=O)c1cccc(c1)C(=O)N(Cc1cnc3oc(C(C)C)cc3n1)[C@H](CC1CCCOC1)CO2 (single isomer, unassigned) [Compound I-66]",+++ (+++ is >60%),,,"ring closure, yield after HPLC ([1]; from Cc1cccc(C)c1-c1cc(OC[C@@H](CC2CCCOC2)NCc2cnc3oc(C(C)C)cc3n2)nc(NS(=O)(=O)c2cccc(C(=O)O)c2)n1, 11.8 mM, 72.5 h): 17% and 20%"
"Cc1cccc(C)c1-c1cc2nc(n1)NS(=O)(=O)c1cccc(c1)C(=O)N(Cc1cnc3oc(C(C)C)c(C(F)(F)F)c3n1)[C@H](CC1(C)CC1)CO2 [Compound I-126, (11R)-6-(2,6-dimethylphenyl)-12-[[6-isopropyl-7-(trifluoromethyl)furo[2,3-b]pyrazin-2-yl]methyl]-11-[(1-methylcyclopropyl)methyl]-2,2-dioxo-9-oxa-2λ^6-thia-3,5,12,19-tetrazatricyclo[12.3.1.14,8]nonadeca-1(18),4(19),5,7,14,16-hexaen-13-one]",+++ (+++ is >60%),,,"ring closure, yield after HPLC ([1]; from Cc1cccc(C)c1-c1cc(OC[C@@H](CC2(C)CC2)NCc2cnc3oc(C(C)C)c(C(F)(F)F)c3n2)nc(NS(=O)(=O)c2cccc(C(=O)O)c2)n1, 12.1 mM, 16.5 h): 36%"
"Cc1cccc(C)c1-c1cc2nc(n1)NS(=O)(=O)c1cccc(c1)C(=O)N(Cc1cnc3oc(C(C)C)nc3n1)[C@H](CC1(C)CC1)CO2 [Compound I-149, (11R)-6-(2,6-Dimethylphenyl)-12-[(2-isopropyloxazolo[4,5-b]pyrazin-5-yl)methyl]-11-[(1-methylcyclopropyl)methyl]-2,2-dioxo-9-oxa-2λ^6-thia-3,5,12,19-tetrazatricyclo[12.3.1.14,8]nonadeca-1(18),4(19),5,7,14,16-hexaen-13-one]",+++ (+++ is >60%),,,"ring closure, yield after HPLC ([1]; from Cc1cccc(C)c1-c1cc(OC[C@@H](CC2(C)CC2)NCc2cnc3oc(C(C)C)nc3n2)nc(NS(=O)(=O)c2cccc(C(=O)O)c2)n1, 23.5 mM, 2.08 h): 40%"
"Cc1cccc(C)c1-c1cc2nc(n1)NS(=O)(=O)c1cccc(c1)C(=O)N(Cc1cnc3oc(C4CC4)cc3n1)[C@H](C=C1CCC1)CO2 [Compound I-154, (11R)-11-(cyclobutylidenemethyl)-12-[(6-cyclopropylfuro[2,3-b]pyrazin-2-yl)methyl]-6-(2,6-dimethylphenyl)-2,2-dioxo-9-oxa-2λ^6-thia-3,5,12,19-tetrazatricyclo[12.3.1.14,8]nonadeca-1(18),4(19),5,7,14,16-hexaen-13-one]",+++ (+++ is >60%),,,"ring closure, yield after HPLC ([1]; from Cc1cccc(C)c1-c1cc(OC[C@@H](C=C2CCC2)NCc2cnc3oc(C4CC4)cc3n2)nc(NS(=O)(=O)c2cccc(C(=O)O)c2)n1, 25.1 mM, 2.08 h): 14%"
"COc1c2nc(nc1-c1c(C)cccc1C)NS(=O)(=O)c1cccc(c1)C(=O)N(Cc1cnc3oc(C(C)C)cc3n1)[C@H](CC(C)(C)C)CC2 [Compound I-157, (11S)-6-(2,6-Dimethylphenyl)-11-(2,2-dimethylpropyl)-12-[(6-isopropylfuro[2,3-b]pyrazin-2-yl)methyl]-7-methoxy-2,2-dioxo-2λ^6-thia-3,5,12,19-tetrazatricyclo[12.3.1.14,8]nonadeca-1(18),4(19),5,7,14,16-hexaen-13-one]",+++ (+++ is >60%),,,"ring closure, yield after HPLC ([1]; from COc1c(CC[C@@H](CC(C)(C)C)NCc2cnc3oc(C(C)C)cc3n2)nc(NS(=O)(=O)c2cccc(C(=O)O)c2)nc1-c1c(C)cccc1C, 11.0 mM, 3.5 h): 62%"
"Cc1cccc(C)c1-c1cc2nc(n1)NS(=O)(=O)c1cccc(c1)C(=O)N(Cc1cnc3nc(C(C)C)oc3n1)[C@H](CC1(C)CC1)CO2 [Compound I-159, (11R)-6-(2,6-Dimethylphenyl)-12-[(2-isopropyloxazolo[4,5-b]pyrazin-6-yl)methyl]-11-[(I-methylcyclopropyl)methyl]-2,2-dioxo-9-oxa-2λ^6-thia-3,5,12,19-tetrazatricyclo[12.3.1.14,8]nonadeca-1(18),4(19),5,7,14,16-hexaen-13-one]",+++ (+++ is >60%),,,"ring closure, yield after HPLC ([1]; from Cc1cccc(C)c1-c1cc(OC[C@@H](CC2(C)CC2)NCc2cnc3nc(C(C)C)oc3n2)nc(NS(=O)(=O)c2cccc(C(=O)O)c2)n1, 26.6 mM, 2.08 h): 26%"
"Cc1cccc(C)c1-c1cc2nc(n1)NS(=O)(=O)c1cccc(c1)C(=O)N(Cc1cnc3oc(C(C)C)c(Cl)c3n1)[C@H](CC1(C)CC1)CO2 [Compound I-161, (11R)-12-[(7-chloro-6-isopropyl-furo[2,3-b]pyrazin-2-yl)methyl]-6-(2,6-dimethylphenyl)-11-[(1-methylcyclopropyl)methyl]-2,2-dioxo-9-oxa-2λ^6-thia-3,5,12,19-tetrazatricyclo[12.3.1.14,8]nonadeca-1(18),4(19),5,7,14,16-hexaen-13-one]",+++ (+++ is >60%),,,"ring closure, yield after HPLC ([1]; from Cc1cccc(C)c1-c1cc(OC[C@@H](CC2(C)CC2)NCc2cnc3oc(C(C)C)c(Cl)c3n2)nc(NS(=O)(=O)c2cccc(C(=O)O)c2)n1, 14.9 mM, 19.0 h): 54%"
"Cc1cccc(C)c1-c1cc2nc(n1)NS(=O)(=O)c1cccc(c1)C(=O)N(Cc1cnc3nc(C4CC4)n(C)c3n1)[C@H](CC13CC(C1)C3)CO2 [Compound I-175, (11R)-11-(1-Bicyclo[1.1.1]pentanylmethyl)-12-[(2-cyclopropyl-3-methyl-imidazo[4,5-b]pyrazin-5-yl)methyl]-6-(2,6-dimethylphenyl)-2,2-dioxo-9-oxa-2λ^6-thia-3,5,12,19-tetrazatricyclo[12.3.1.14,8]nonadeca-1(18),4(19),5,7,14,16-hexaen-13-one]",+++ (+++ is >60%),,,"ring closure, yield after HPLC ([1]; from Cc1cccc(C)c1-c1cc(OC[C@@H](CC23CC(C2)C3)NCc2cnc3nc(C4CC4)n(C)c3n2)nc(NS(=O)(=O)c2cccc(C(=O)O)c2)n1, 11.1 mM, 16.5 h): 28%"
"CCc1cccc(CC)c1-c1cc2nc(n1)NS(=O)(=O)c1cccc(c1)C(=O)N(Cc1cnc3c(CCOC)c(C(C)(C)C)n(C)c3n1)[C@H](CC(C)C)CO2 [IV-92, (11R)-12-[[6-tert-butyl-7-(2-methoxyethyl)-5-methyl-pyrrolo[2,3-b]pyrazin-3-yl]methyl]-6-(2,6-diethylphenyl)-11-isobutyl-2,2-dioxo-9-oxa-2λ^6-thia-3,5,12,19-tetrazatricyclo[12.3.1.14,8]nonadeca-1(18),4(19),5,7,14,16-hexaen-13-one]",,< 1000,> 60,"ring closure, yield after HPLC ([1]; from CCc1cccc(CC)c1-c1cc(OC[C@@H](CC(C)C)NCc2cnc3c(CCOC)c(C(C)(C)C)n(C)c3n2)nc(NS(=O)(=O)c2cccc(C(=O)O)c2)n1, 34.0 mM, 25.0 °C, 2.0 h): 22%"
"Cc1cccc(C)c1-c1cc2nc(n1)NS(=O)(=O)c1cccc(c1)C(=O)N(Cc1cnc3c(F)c(C4(C)CC4)n(C)c3n1)[C@H](CC1(C)CC1)CO2 [IV-93, (11R)-6-(2,6-dimethylphenyl)-12-[[7-fluoro-5-methyl-6-(1-methylcyclopropyl)pyrrolo[2,3-b]pyrazin-3-yl]methyl]-11-[(1-methylcyclopropyl)methyl]-2,2-dioxo-9-oxa-2λ^6-thia-3,5,12,19-tetraza-tricyclo[12.3.1.14,8]nonadeca-1(18),4(19),5,7,14,16-hexaen-13-one]",,< 1000,> 60,"ring closure, yield after HPLC ([1]; from Cc1cccc(C)c1-c1cc(OC[C@@H](CC2(C)CC2)NCc2cnc3c(F)c(C4(C)CC4)n(C)c3n2)nc(NS(=O)(=O)c2cccc(C(=O)O)c2)n1, 10.1 mM, 25.0 °C, 16.5 h): 20%"
"Cc1cccc(C)c1-c1cc2nc(n1)NS(=O)(=O)c1cccc(c1)C(=O)N(Cc1cnc3cc(C(C)(C)C)n(C)c3n1)[C@H](C[C@H]1CCC(C)(C)O1)CO2 [IV-98, (11R)-12-[(6-tert-butyl-5-methyl-pyrrolo[2,3-b]pyrazin-3-yl)methyl]-6-(2,6-dimethylphenyl)-11-[[(2R)-5,5-dimethyltetrahydrofuran-2-yl]methyl]-2,2-dioxo-9-oxa-2λ^6-thia-3,5,12,19-tetrazatricyclo[12.3.1.14,8]nonadeca-1(18),4(19),5,7,14,16-hexaen-13-one]",,< 1000,> 60,"ring closure, yield after HPLC ([1]; from Cc1cccc(C)c1-c1cc(OC[C@@H](C[C@H]2CCC(C)(C)O2)NCc2cnc3cc(C(C)(C)C)n(C)c3n2)nc(NS(=O)(=O)c2cccc(C(=O)O)c2)n1, 22.7 mM, 25.0 °C): 58%"
"Cc1cccc(C)c1-c1cc2nc(n1)NS(=O)(=O)c1cccc(c1)C(=O)N(Cc1cnc3cc(C(C)(C)C(F)(F)F)n(C)c3n1)[C@H](CC13CC(C1)C3)CO2 [IV-102, (11R)-11-(1-bicyclo[1.1.1]pentanylmethyl)-6-(2,6-dimethylphenyl)-12-[[5-methyl-6-(2,2,2-trifluoro-1,1-dimethyl-ethyl)pyrrolo[2,3-b]pyrazin-3-yl]methyl]-2,2-dioxo-9-oxa-2λ^6-thia-3,5,12,19-tetrazatricyclo[12.3.1.14,8]nonadeca-1(18),4(19),5,7,14,16-hexaen-13-one]",,< 1000,> 60,"ring closure, yield after HPLC ([1]; from Cc1cccc(C)c1-c1cc(OC[C@@H](CC23CC(C2)C3)NCc2cnc3cc(C(C)(C)C(F)(F)F)n(C)c3n2)nc(NS(=O)(=O)c2cccc(C(=O)O)c2)n1, 9.8 mM, 25.0 °C, 4.0 h): 65%"
